Patent publication US10479780B2, “Aminopyrazole derivatives” (Chugai Seiyaku Kabushiki Kaisha, priority 2015, dated 2019)
Read-outs that look alike come from different tables or passages of the source.

How the values were obtained:
Assay type in all cases: biochemical
[1] = target: T1, human Yes1 enzyme (Homo sapiens, UniProt P07947); assay: Yes1 enzyme inhibitory activity (time-resolved fluorometry, biotinylated peptide phosphorylation); conditions: read-out: YES_IC50
T1 construct: made in house
T1 sequence (P07947 whole entry): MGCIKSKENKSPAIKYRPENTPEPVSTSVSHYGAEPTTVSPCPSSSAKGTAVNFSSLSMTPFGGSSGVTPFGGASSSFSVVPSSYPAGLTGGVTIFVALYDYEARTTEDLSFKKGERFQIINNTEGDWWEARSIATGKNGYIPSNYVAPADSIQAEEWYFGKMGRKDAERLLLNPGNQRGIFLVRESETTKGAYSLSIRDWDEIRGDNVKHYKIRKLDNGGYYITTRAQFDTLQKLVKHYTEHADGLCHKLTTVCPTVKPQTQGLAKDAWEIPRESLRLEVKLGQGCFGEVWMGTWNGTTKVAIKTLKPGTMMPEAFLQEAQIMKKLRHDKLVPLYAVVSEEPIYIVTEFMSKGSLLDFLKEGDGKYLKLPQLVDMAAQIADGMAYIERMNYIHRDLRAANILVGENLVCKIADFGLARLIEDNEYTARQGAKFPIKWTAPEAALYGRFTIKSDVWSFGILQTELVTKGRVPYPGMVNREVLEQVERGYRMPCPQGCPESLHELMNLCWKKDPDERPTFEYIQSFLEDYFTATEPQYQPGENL
In short: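 Inhibition was expressed against a compound-free control to give IC50, using TR-FRET read-out (Eu-cryptate anti-pTyr antibody, streptavidin-XL665).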

[2] = target: T2, human Src enzyme (Homo sapiens, UniProt P12931); assay: Src enzyme inhibitory activity (time-resolved fluorometry, biotinylated peptide phosphorylation); conditions: read-out: SRC_IC50
T2 construct: purchased Carna Biosciences, Inc. 08-173
T2 sequence (P12931 whole entry): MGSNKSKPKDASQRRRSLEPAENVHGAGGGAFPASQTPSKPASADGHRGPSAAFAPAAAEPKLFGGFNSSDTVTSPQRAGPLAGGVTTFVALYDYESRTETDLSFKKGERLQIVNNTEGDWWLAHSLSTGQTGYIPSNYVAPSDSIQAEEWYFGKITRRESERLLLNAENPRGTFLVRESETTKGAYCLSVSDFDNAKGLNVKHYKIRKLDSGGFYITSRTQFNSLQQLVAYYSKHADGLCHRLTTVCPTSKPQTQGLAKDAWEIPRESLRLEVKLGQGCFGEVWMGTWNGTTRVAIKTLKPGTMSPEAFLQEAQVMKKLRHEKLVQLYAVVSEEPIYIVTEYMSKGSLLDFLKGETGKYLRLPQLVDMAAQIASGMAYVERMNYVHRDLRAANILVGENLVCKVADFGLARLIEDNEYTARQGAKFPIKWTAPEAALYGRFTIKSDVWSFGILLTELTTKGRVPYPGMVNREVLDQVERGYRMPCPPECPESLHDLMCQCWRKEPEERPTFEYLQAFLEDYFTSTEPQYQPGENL
In short: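 Compounds were tested for blocking tyrosine phosphorylation of a biotinylated peptide substrate by recombinant human Src. Phosphorylated product was quantified by time-resolved fluorometry using europium cryptate and XL665 conjugates, and IC50 was calculated against the compound-free control.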

[3] = target: T3, human Lck enzyme (Homo sapiens, UniProt P06239); assay: Lck enzyme inhibitory activity (time-resolved fluorometry, biotinylated peptide phosphorylation); conditions: read-out: LCK_IC50
T3 construct: purchased Carna Biosciences, Inc. 08-170
T3 sequence (P06239 whole entry): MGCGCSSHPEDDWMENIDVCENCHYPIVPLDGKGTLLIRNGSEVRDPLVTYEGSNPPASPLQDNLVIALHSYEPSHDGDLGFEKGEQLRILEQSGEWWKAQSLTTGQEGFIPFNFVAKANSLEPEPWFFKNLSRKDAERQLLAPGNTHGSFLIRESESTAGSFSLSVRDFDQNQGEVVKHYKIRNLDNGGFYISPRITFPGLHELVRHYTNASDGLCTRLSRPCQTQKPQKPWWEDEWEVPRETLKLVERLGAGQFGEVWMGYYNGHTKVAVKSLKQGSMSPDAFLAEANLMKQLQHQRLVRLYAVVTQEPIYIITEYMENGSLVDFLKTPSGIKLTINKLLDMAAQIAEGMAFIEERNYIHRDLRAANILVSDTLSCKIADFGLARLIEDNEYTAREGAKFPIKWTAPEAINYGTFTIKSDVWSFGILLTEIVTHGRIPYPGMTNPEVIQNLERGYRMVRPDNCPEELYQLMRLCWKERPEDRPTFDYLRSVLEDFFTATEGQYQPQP
In short: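 Readout pairs a europium cryptate-labelled anti-phosphotyrosine antibody with XL665-streptavidin, measured by time-resolved fluorescence. IC50 derived from percent inhibition against untreated controls.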

[4] = biotinylated peptide phosphorylation

| Structure (SMILES) | IC50 [1, 4] | IC50 [2, 4] | IC50 [3, 4] | IC50 [1] | IC50 [2] | IC50 [3] |
| --- | --- | --- | --- | --- | --- | --- |
| Cc1cc(Oc2c(F)cccc2F)ncc1-n1ncc(C(=O)c2cc3cc(OCC(F)F)c(NS(=O)(=O)c4cncc(Cl)c4)cc3[nH]2)c1N [Example 5-1-575, N-[2-[5-amino-1-[6-(2,6-difluorophenoxy)-4-methylpyridin-3-yl]pyrazole-4-carbonyl]-5-(2,2-difluoroethoxy)-1H-indol-6-yl]-5-chloropyridine-3-sulfonamide] | 4.3 nM | 650 nM | 46 nM |  |  |  |
| CCN(CC)C(=O)CS(=O)(=O)Nc1cc2[nH]c(C(=O)c3cnn(-c4cnc(Oc5ccccc5F)cc4C)c3N)cc2cc1F [Example 4-10-001, 2-{{2-{5-amino-1-[6-(2-fluorophenoxy)-4-methylpyridin-3-yl]pyrazole-4-carbonyl}-5-fluoro-1H-indol-6-yl}sulfamoyl}-N,N-diethylacetamide] | 2.1 nM | 86 nM | 18 nM |  |  |  |
| Cc1cc(-n2ncc(C(=O)c3cc4cc(OC(F)F)c(NS(C)(=O)=O)cc4[nH]3)c2N)ccc1Oc1ccccc1F [Example 5-1-167, N-[2-[5-amino-1-[4-(2-fluorophenoxy)-3-methylphenyl]pyrazole-4-carbonyl]-5-(difluoromethoxy)-1H-indol-6-yl] methanesulfonamide] |  |  |  | 3.6 nM | 2000 nM | 370 nM |
| Cc1cc2cc(C(=O)c3cnn(-c4cnc(Oc5ccccc5F)cc4C)c3N)[nH]c2cc1NS(=O)(=O)c1cncc(F)c1 [Example 5-1-494, N-[2-[5-amino-1-[6-(2-fluorophenoxy)-4-methylpyridin-3-yl]pyrazole-4-carbonyl]-5-methyl-1H-indol-6-yl]-5-fluoropyridine-3-sulfonamide] | 3 nM | 430 nM | 230 nM |  |  |  |
| Cc1cc(Oc2ccccc2F)ccc1-n1ncc(C(=O)c2cc3cc(OCC(F)F)c(NS(=O)(=O)C4CC4)cc3[nH]2)c1N [Example 4-24-020, N-[2-[5-amino-1-[4-(2-fluorophenoxy)-2-methylphenyl]pyrazole-4-carbonyl]-5-(2,2-difluoroethoxy)-1H-indol-6-yl]cyclopropanesulfonamide] | 3.1 nM | 54 nM | 22 nM |  |  |  |
| Cc1cc2cc(C(=O)c3cnn(-c4ccc(Oc5ccccc5F)cc4C)c3N)[nH]c2cc1N1C(=O)NC2(CCCCC2)C1=O [Example 5-1-409, 3-[2-[5-amino-1-[4-(2-fluorophenoxy)-2-methylphenyl]pyrazole-4-carbonyl]-5-methyl-1H-indol-6-yl]-1,3-diazaspiro[4.5]decane-2,4-dione] | 3.1 nM | 160 nM | 20 nM |  |  |  |
| Cc1cc(Oc2c(F)cccc2F)ncc1-n1ncc(C(=O)c2cc3cc(C(C)C)c(NS(=O)(=O)CCCF)cc3[nH]2)c1N [Example 5-1-305, N-[2-[5-amino-1-[6-(2,6-difluorophenoxy)-4-methylpyridin-3-yl]pyrazole-4-carbonyl]-5-propan-2-yl-1H-indol-6-yl]-3-fluoropropane-1-sulfonamide] |  |  |  | 9.8 nM | 380 nM | 84 nM |
| Cc1cc(Oc2c(F)cccc2F)ncc1-n1ncc(C(=O)c2cc3cc(OCC(F)F)c(NS(=O)(=O)c4cncc(F)c4)cc3[nH]2)c1N [Example 5-1-576, N-[2-[5-amino-1-[6-(2,6-difluorophenoxy)-4-methylpyridin-3-yl]pyrazole-4-carbonyl]-5-(2,2-difluoroethoxy)-1H-indol-6-yl]-5-fluoropyridine-3-sulfonamide] | 3.1 nM | 470 nM | 14 nM |  |  |  |
| Cc1cc(Oc2ccccc2F)ccc1-n1ncc(C(=O)c2cc3cc(OCC(F)F)c(N4C(=O)NC5(CCN(C6COC6)CC5)C4=O)cc3[nH]2)c1N [Example 5-1-272, 3-[2-[5-amino-1-[4-(2-fluorophenoxy)-2-methylphenyl]pyrazole-4-carbonyl]-5-(2,2-difluoroethoxy)-1H-indol-6-yl]-8-(oxetan-3-yl)-1,3,8-triazaspiro[4.5]decane-2,4-dione] |  |  |  | 0.65 nM | 7.8 nM | 4.2 nM |
| Cc1cc(-n2ncc(C(=O)c3cc4cc(OC5CCN(C6CCC6)CC5)c(Br)cc4[nH]3)c2N)ccc1Oc1ccccc1F [Example 5-1-218, [5-amino-1-[4-(2-fluorophenoxy)-3-methylphenyl]pyrazol-4-yl]-[6-bromo-5-(1-cyclobutylpiperidin-4-yl)oxy-1H-indol-2-yl] methanone] |  |  |  | 0.64 nM | 220 nM | 39 nM |
| Cc1cc2cc(C(=O)c3cnn(-c4cnc(Oc5ccccc5)cc4C)c3N)[nH]c2cc1NS(C)(=O)=O [Example 5-1-109, N-[2-[5-amino-1-(4-methyl-6-phenoxypyridin-3-yl)pyrazole-4-carbonyl]-5-methyl-1H-indol-6-yl]methanesulfonamide] |  |  |  | 0.7 nM | 37 nM | 1.4 nM |
| Cc1cc(Oc2ccccc2F)ncc1-n1ncc(C(=O)c2cc3cc(F)c(NS(=O)(=O)CC(=O)N4CCCC4)cc3[nH]2)c1N [Example 4-10-005, N-[2-[5-amino-1-[6-(2-fluorophenoxy)-4-methylpyridin-3-yl]pyrazole-4-carbonyl]-5-fluoro-1H-indol-6-yl]-2-oxo-2-pyrrolidin-1-ylethanesulfonamide] | 2.8 nM | 58 nM | 16 nM |  |  |  |
| Cc1cc(Oc2ccccc2F)ccc1-n1ncc(C(=O)c2cc3cc(OCC(F)F)c(N4C(=O)[C@@H]5C[C@H](NC(=O)OCc6ccco6)CN5C4=O)cc3[nH]2)c1N [Example 5-1-278, furan-2-ylmethyl ((6S,7aS)-2-(2-(5-amino-1-(4-(2-fluorophenoxy)-2-methylphenyl)-1H-pyrazole-4-carbonyl)-5-(2,2-difluoroethoxy)-1H-indol-6-yl)-1,3-dioxohexahydro-1H-pyrrolo[1,2-c]imidazol-6-yl)carbamate] |  |  |  | 1.2 nM | 23 nM | 8.7 nM |
| COc1cc2cc(C(=O)c3cnn(-c4ccc(Oc5ccccc5F)cc4C)c3N)[nH]c2cc1NS(=O)(=O)CC(=O)N1CCCC1 [Example 5-1-122, N-[2-[5-amino-1-[4-(2-fluorophenoxy)-2-methylphenyl]pyrazole-4-carbonyl]-5-methoxy-1H-indol-6-yl]-2-oxo-2-pyrrolidin-1-ylethanesulfonamide] |  |  |  | 0.39 nM | 30 nM | 4.6 nM |
| Cc1cc(-n2ncc(C(=O)c3cc4cc(OC5CCN(C(C)C)CC5)c(Br)cc4[nH]3)c2N)ccc1Oc1ccccc1F [Example 5-1-148, [5-amino-1-[4-(2-fluorophenoxy)-3-methylphenyl]pyrazol-4-yl]-[6-bromo-5-(1-propan-2-ylpiperidin-4-yl)oxy-1H-indol-2-yl] methanone] |  |  |  | 0.57 nM | 180 nM | 47 nM |
| Cc1cc(Oc2ccccc2F)cc(F)c1-n1ncc(C(=O)c2cc3cc(OC(F)F)c(N4CCOC4=O)cc3[nH]2)c1N [Example 4-25-019, 3-[2-[5-amino-1-[2-fluoro-4-(2-fluorophenoxy)-6-methylphenyl]pyrazole-4-carbonyl]-5-(difluoromethoxy)-1H-indol-6-yl]-1,3-oxazolidin-2-one] | 5.2 nM | 43 nM | 13 nM |  |  |  |
| Cc1cc(Oc2ccccc2F)ccc1-n1ncc(C(=O)c2cc3cc(OC4CCN(C(C)C)CC4)c(Cl)cc3[nH]2)c1N [Example 5-1-197, [5-amino-1-[4-(2-fluorophenoxy)-2-methylphenyl]pyrazol-4-yl]-[6-chloro-5-(1-propan-2-ylpiperidin-4-yl)oxy-1H-indol-2-yl] methanone] |  |  |  | 0.87 nM | 7.7 nM | 8.3 nM |
| Cc1cc2cc(C(=O)c3cnn(-c4ccc(Oc5ccccc5F)cc4C)c3N)[nH]c2cc1N1C(=O)NC2(CCNC2)C1=O (stereo not drawn) [Example 5-1-365, 3-[2-[5-amino-1-[4-(2-fluorophenoxy)-2-methylphenyl]pyrazole-4-carbonyl]-5-methyl-1H-indol-6-yl]-1,3,7-triazaspiro[4.4]nonane-2,4-dione] |  |  |  | 1.5 nM | 18 nM | 5.7 nM |
| Cc1cc2[nH]c(C(=O)c3cnn(-c4ccc(Oc5ccccc5F)cc4C)c3N)cc2cc1NS(C)(=O)=O [Example 4-2-049, N-[2-[5-amino-1-[4-(2-fluorophenoxy)-2-methylphenyl]pyrazole-4-carbonyl]-6-methyl-1H-indol-5-yl]methanesulfonamide] | 0.29 nM | 1.9 nM | 1.7 nM |  |  |  |
| Cc1cc(Oc2c(F)cccc2F)ncc1-n1ncc(C(=O)c2cc3cc(F)c(N4CCOC4=O)cc3[nH]2)c1N [Example 5-1-097, 3-[2-[5-amino-1-[6-(2,6-difluorophenoxy)-4-methylpyridin-3-yl]pyrazole-4-carbonyl]-5-fluoro-1H-indol-6-yl]-1,3-oxazolidin-2-one] |  |  |  | 1.1 nM | 8.7 nM | 1.3 nM |
| Cc1cc(Oc2c(F)cccc2F)ncc1-n1ncc(C(=O)c2cc3cc(F)c(N4C(=O)[C@@H]5C[C@@H](O)CN5C4=O)cc3[nH]2)c1N [Example 5-1-433, (6R,7aS)-2-[2-[5-amino-1-[6-(2,6-difluorophenoxy)-4-methylpyridin-3-yl]pyrazole-4-carbonyl]-5-fluoro-1H-indol-6-yl]-6-hydroxy-5,6,7,7a-tetrahydropyrrolo[1,2-c]imidazole-1,3-dione] | 1.2 nM | 59 nM | 4.8 nM |  |  |  |
| Cc1cc(Oc2ccccc2F)cc(F)c1-n1ncc(C(=O)c2cc3cc(F)c(NS(C)(=O)=O)cc3[nH]2)c1N [Example 4-7-003, N-[2-[5-amino-1-[2-fluoro-4-(2-fluorophenoxy)-6-methylphenyl]pyrazole-4-carbonyl]-5-fluoro-1H-indol-6-yl]methanesulfonamide] | 1 nM | 19 nM | 7.1 nM |  |  |  |
